Source: ChEMBL document CHEMBL1123163, “Absolute configuration of (-)-5-benzoyl-1,2-dihydro-3H-pyrrolo[1,2-alpha]pyrrole-1-carboxylic acid, the active enantiomer of ketorolac” (1986)

Tests used:
Mus musculus = assay: Analgesic activity using mouse phenylquinone writhing assay along with 70 mg/kg of aspirin; assay type: functional
Rattus norvegicus = assay: Antiinflammatory activity using carrageenan rat paw edema assay along with 15 mg/kg of phenylbutazone; assay type: functional

SMILES: O=C(c1ccccc1)C1CCC2[C@@H](C(=O)O)CCN12 (stereo partly specified)
- ED50 (Mus musculus): 699 mg/kg
- ED50 (Rattus norvegicus): 170 mg/kg

SMILES: O=C(c1ccccc1)C1CCC2[C@H](C(=O)O)CCN12 (stereo partly specified)
- ED50 (Mus musculus): < 3 mg/kg
- ED50 (Rattus norvegicus): 3 mg/kg

SMILES: O=C(O)C1CCN2C(C(=O)c3ccccc3)CCC12 (racemic)
- ED50 (Mus musculus): 399 mg/kg
- ED50 (Rattus norvegicus): 96 mg/kg
